Reference: patent US20220073536A1 (Rigel Pharmaceuticals, Inc., priority 2003, published 2022)

System: cultured human mast cells (CHMC)
Test: CHMC low cell density IgE activation: tryptase assay
Assay type: cell-based
Details: Homo sapiens, Mast cell, low cell density CHMC, IgE activation, tryptase release, 3 pt; read-out: LD Tryptase, CHMC, IgE, 3 pt
Protocol: Inhibition of degranulation was measured at both low and high cell density by quantifying the release of the granule specific factors tryptase, histamine and hexosaminidase. Inhibition of release and/or synthesis of lipid mediators was assessed by measuring the release of leukotriene LTC4 and inhibition of release and/or synthesis of cytokines was monitored by quantifying TNF-α, IL-6 and IL-13. Tryptase and hexosaminidase were quantified using fluorogenic substrates as described in their respective examples. […] The protocols of the various assays are provided below.
Pellet CHMC cells (980 rpm, 10 min) and resuspend in pre-warmed MT. Add 65 ul of cells to each 96-well plate. Depending on the degranulation activity for each particular CHMC donor, load 1000-1500 cells/well. Mix four times followed by a 1 hr incubation at 37° C. […] Stimulate cells by adding 25 ul of 6× anti-IgE solution to the appropriate plates. Add 25 ul MT to un-stimulated control wells. Mix twice following addition of the anti-IgE. Incubate at 37° C. for 30 minutes. […] Spin plates at 1000 rpm for 10 min to pellet cells. Transfer 25 ul of supernatant to a 96-well black bottom plate and add 100 ul of freshly diluted tryptase substrate solution to each well. Incubate plates at room temperature for 30 min.

Compound	IC50 [µM]
COc1ccc(Nc2ncc(F)c(Nc3ccc4c(c3)NC(=O)[C@@H](C)O4)n2)cc1Cl [Compound 211]	< 10
COc1cc(C)c(Nc2ncc(F)c(Nc3ccc4c(c3)NC(=O)[C@@H](C)O4)n2)cc1Cl [Compound 213]	< 10
COc1cc(Nc2ncc(F)c(Nc3ccc4c(c3)NC(=O)C(C)S4(=O)=O)n2)cc(OC)c1 (stereo not drawn) [Compound 263, N2-(3,5-Dimethoxyphenyl)-N4-(dioxide-2-methyl-1,1,3-trioxo-4H-benzo[1,4]thiazin-6-yl)-5-fluoro-2,4-pyrimidinediamine]	< 10
Cc1cc(C)cc(Nc2ncc(F)c(Nc3ccc4c(c3)NC(=O)C(C)S4(=O)=O)n2)c1 (stereo not drawn) [Compound 264]	< 10
CC1C(=O)Nc2cc(Nc3nc(Nc4ccc5cn[nH]c5c4)ncc3F)ccc2S1(=O)=O (stereo not drawn) [Compound 265]	< 10
COc1cc(Nc2ncc(F)c(Nc3ccc4c(c3)NC(=O)C(C)S4(=O)=O)n2)cc(OC)c1OC (stereo not drawn) [Compound 266]	< 10

Next, values leading:

IC50 [µM]	Compound
< 10	COc1ccc(Nc2ncc(F)c(Nc3ccc4c(c3)NC(=O)C(C)S4(=O)=O)n2)cc1F (racemic) [Compound 296]
< 10	COc1ccc(Nc2ncc(F)c(Nc3ccc4c(c3)NC(=O)C(C)S4)n2)cc1F (racemic) [Compound 298]

Same assay, conditions: Homo sapiens, Mast cell, low cell density CHMC, IgE activation, tryptase release, 8 pt; read-out: LD Tryptase, CHMC, IgE, 8 pt

Compound	IC50 [µM]
C[C@@H]1Oc2ccc(Nc3nc(Nc4ccc5cn[nH]c5c4)ncc3F)cc2NC1=O [Compound 200]	< 10
C[C@@H]1Oc2ccc(Nc3nc(Nc4ccc5cnn(C)c5c4)ncc3F)cc2NC1=O [Compound 201]	< 10
Cc1cc(C)cc(Nc2ncc(F)c(Nc3ccc4c(c3)NC(=O)[C@H](C)O4)n2)c1 [Compound 202, (S)-N2-(3,5-Dimethylphenyl)-5-fluoro-N4-(2-methyl-3-oxo-2H,4H-benz[1,4]oxazin-6-yl)-2,4-pyrimidinediamine]	< 10
COc1cc(Nc2ncc(F)c(Nc3ccc4c(c3)NC(C)(C)CO4)n2)cc(OC)c1 [Compound 203, N4-(3,4-Dihydro-3,3-dimethyl-2H,4H-benz[1,4]oxazin-6-yl)-N2-(3,5-dimethoxyphenyl)-5-fluoro-2,4-pyrimidinediamine]	< 10
Cc1cc(C)cc(Nc2ncc(F)c(Nc3ccc4c(c3)NC(=O)[C@@H](C)O4)n2)c1 [Compound 204, (R)-N2-(3,5-Dimethylphenyl)-5-fluoro-N4-(2-methyl-3-oxo-2H,4H-benz[1,4]oxazin-6-yl)-2,4-pyrimidinediamine]	< 10
COc1ccc(Nc2ncc(F)c(Nc3ccc4c(c3)NC(=O)[C@@H](C)O4)n2)cc1Cl [Compound 207]	< 10
C[C@H]1Oc2ccc(Nc3nc(Nc4ccc5cnn(C)c5c4)ncc3F)cc2NC1=O [Compound 210]	< 10
COc1cc(C)c(Nc2ncc(F)c(Nc3ccc4c(c3)NC(=O)[C@@H](C)O4)n2)cc1Cl [Compound 213]	< 10
COc1cc(Nc2ncc(F)c(Nc3ccc4c(c3)NC(=O)C(C)S4(=O)=O)n2)cc(OC)c1 (stereo not drawn) [Compound 263, N2-(3,5-Dimethoxyphenyl)-N4-(dioxide-2-methyl-1,1,3-trioxo-4H-benzo[1,4]thiazin-6-yl)-5-fluoro-2,4-pyrimidinediamine]	< 10
Cc1cc(C)cc(Nc2ncc(F)c(Nc3ccc4c(c3)NC(=O)C(C)S4(=O)=O)n2)c1 (stereo not drawn) [Compound 264]	< 10
CC1C(=O)Nc2cc(Nc3nc(Nc4ccc5cn[nH]c5c4)ncc3F)ccc2S1(=O)=O (stereo not drawn) [Compound 265]	< 10
COc1cc(Nc2ncc(F)c(Nc3ccc4c(c3)NC(=O)C(C)S4(=O)=O)n2)cc(OC)c1OC (stereo not drawn) [Compound 266]	< 10
COc1cc(Nc2ncc(F)c(Nc3ccc4c(c3)NC(=O)C(C)(C)S4(=O)=O)n2)cc(OC)c1 [Compound 267]	< 10
Cc1cc(C)cc(Nc2ncc(F)c(Nc3ccc4c(c3)NC(=O)C(C)(C)S4(=O)=O)n2)c1 [Compound 268]	< 10
COc1cc(Nc2ncc(F)c(Nc3ccc4c(c3)NC(=O)C(C)(C)S4(=O)=O)n2)cc(OC)c1OC [Compound 269]	< 10
COc1cc(Nc2ncc(F)c(Nc3ccc4c(c3)NC(=O)C(C)S4)n2)cc(OC)c1 (stereo not drawn) [Compound 270]	< 10
Cc1cc(C)cc(Nc2ncc(F)c(Nc3ccc4c(c3)NC(=O)C(C)S4)n2)c1 (stereo not drawn) [Compound 271]	< 10
COc1cc(Nc2ncc(F)c(Nc3ccc4c(c3)NC(=O)C(C)S4)n2)cc(OC)c1OC (stereo not drawn) [Compound 272]	< 10
CC1(C)C(=O)Nc2cc(Nc3nc(Nc4ccc5cn[nH]c5c4)ncc3F)ccc2S1(=O)=O [Compound 273]	< 10
CC1(C)C(=O)Nc2cc(Nc3nc(Nc4ccc5[nH]ncc5c4)ncc3F)ccc2S1(=O)=O [Compound 274]	< 10
CC1Sc2ccc(Nc3nc(Nc4ccc5cn[nH]c5c4)ncc3F)cc2NC1=O (stereo not drawn) [Compound 277]	< 10
CC1Sc2ccc(Nc3nc(Nc4ccc5[nH]ncc5c4)ncc3F)cc2NC1=O (stereo not drawn) [Compound 278]	< 10

Now from value to compound:

IC50 [µM]	Compound
< 10	CC1Sc2ccc(Nc3nc(Nc4cccc(O)c4)ncc3F)cc2NC1=O (racemic) [Compound 282]
< 10	COc1ccc(Nc2ncc(F)c(Nc3ccc4c(c3)NC(=O)C(C)S4(=O)=O)n2)cc1Cl (racemic) [Compound 286]
< 10	COc1ccc(Nc2ncc(F)c(Nc3ccc4c(c3)NC(=O)C(C)S4(=O)=O)n2)cc1F (racemic) [Compound 296]
< 10	COc1ccc(Nc2ncc(F)c(Nc3ccc4c(c3)NC(=O)C(C)S4)n2)cc1F (racemic) [Compound 298]

Same assay, conditions: Homo sapiens, Mast cell, low cell density, IgE activation, 3 pt; read-out: LD Tryptase, CHMC, IgE, 3 pt

Compound	IC50 [µM]
CC1C(=O)Nc2cc(-c3nc(Nc4ccc5oncc5c4)nc(N)c3F)ccc2S1(=O)=O (racemic) [Compound 929]	< 10

Same assay, conditions: Homo sapiens, Mast cell, low cell density, IgE activation, 8 pt; read-out: LD Tryptase, CHMC, IgE, 8 pt

Compound	IC50 [µM]
CC1Sc2ccc(Nc3nc(Nc4ccc5oncc5c4)ncc3F)cc2NC1=O (racemic) [Compound 931]	< 10

Same assay, conditions: low cell density CHMC, IgE activation, tryptase release, 3 pt; read-out: LD Tryptase, CHMC, IgE, 3 pt

Compound	IC50 [µM]
CC1Sc2ccc(Nc3nc(Cl)ncc3F)cc2NC1=O (racemic) [Compound 314, racemic-N2-Chloro-5-fluoro-N4-(2-methyl-3-oxo-2H,4H-benzo[1,4]thiazin-6-yl)-4-pyrimidineamine]	< 10
CC1C(=O)Nc2cc(Nc3nc(Cl)ncc3F)ccc2S1(=O)=O (racemic) [Compound 317, racemic-N2-Chloro-5-fluoro-N4-(2-methyl-1,1,3-trioxo-2H,4H-benzo[1,4]thiazin-6-yl)-4-pyrimidineamine]	> 10

Same assay, conditions: low cell density CHMC, IgE activation, tryptase release, 8 pt; read-out: LD Tryptase, CHMC, IgE, 8 pt

Compound	IC50 [µM]
C[C@H]1Oc2ccc(Nc3nc(Nc4cc5c6c(c4)c(CCO)cn6CCO5)ncc3F)cc2NC1=O [Compound 205, (R)-5-Fluoro-N2-[6-(2-hydroxyethyl)-2,3-dihydropyrrolo[1,2,3-d,e]benzoxazin-8-yl]-N4-(2-methyl-3-oxo-2H,4H-benz[1,4]oxazin-6-yl)-2,4-pyrimidinediamine]	< 10
CC1(C)COc2ccc(Nc3nc(Nc4cc5c6c(c4)c(CCO)cn6CCO5)ncc3F)cc2N1 [Compound 206, N4-(3,4-Dihydro-3,3-dimethyl-2H,4H-benz[1,4]oxazin-6-yl)-5-fluoro-N2-[6-(2-hydroxyethyl)-2,3-dihydropyrrolo[1,2,3-d,e]benzoxazin-8-yl]-2,4-pyrimidinediamine]	< 10
CNC(=O)COc1cccc(Nc2ncc(F)c(Nc3ccc4c(c3)NC(=O)C(C)(C)S4(=O)=O)n2)c1 [Compound 275, N4-(2,2-Dimethyl-1,1,3-trioxo-4H-benzo[1,4]thiazin-6-yl)-5-fluoro-N2-[3-(N-methylamino)carbonylmethyleneoxyphenyl]-2,4-pyrimidinediamine]	< 10
COc1ccc(Nc2ncc(F)c(Nc3ccc4c(c3)NC(=O)C(C)(C)S4(=O)=O)n2)cc1Cl [Compound 276]	< 10
CNC(=O)COc1cccc(Nc2ncc(F)c(Nc3ccc4c(c3)NC(=O)C(C)S4)n2)c1 (stereo not drawn) [Compound 279, 5-Fluoro-N2-[3-(N-methylamino)carbonylmethyleneoxyphenyl]-N4-(2-methyl-3-oxo-2H,4H-benzo[1,4]thiazin-6-yl)-2,4-pyrimidinediamine]	< 10

The remaining lines, values ahead:

IC50 [µM]	Compound
< 10	CC1C(=O)Nc2cc(Nc3nc(Nc4cccc(O)c4)ncc3F)ccc2S1(=O)=O (racemic) [Compound 284, racemic-5-Fluoro-N2-[3-hydoxyphenyl]-N4-(2-methyl-1,1,3-trioxo-2H,4H-benzo[1,4]thiazin-6-yl)-2,4-pyrimidinediamine]
< 10	CNC(=O)COc1cccc(Nc2ncc(F)c(Nc3ccc4c(c3)NC(=O)C(C)S4(=O)=O)n2)c1 (racemic) [Compound 285, racemic-5-Fluoro-N2-[3-(N-methylamino)carbonylmethyleneoxyphenyl]-N4-(2-methyl-1,1,3-trioxo-2H,4H-benzo[1,4]thiazin-6-yl)-2,4-pyrimidinediamine]

Same assay, conditions: low cell density CHMC, IgE activation, tryptase, 3 pt; read-out: LD Tryptase, CHMC, IgE, 3 pt

Compound	IC50 [µM]
5-Fluoro-N2,N4-bis (4-[N-[methoxycarbonylmethylene]aminocarbonyl]phenyl)-2,4-pyrimidinediamine [Compound 1332]	< 10
5-Fluoro-N2-[2- (N-methylamino)carbonylindol-7-yl]-N4-[3,4-(tetrafluoroethylenedioxy)phenyl]-2,4-pyrimidinediamine [Compound 365]	< 10

Same assay, conditions: low cell density CHMC, IgE activation, tryptase, 8 pt; read-out: LD Tryptase, CHMC, IgE, 8 pt

Compound	IC50 [µM]
5-Fluoro-N2,N4-bis (4-[N-[methoxycarbonylmethylene]aminocarbonyl]phenyl)-2,4-pyrimidinediamine [Compound 1332]	< 10
5-Fluoro-N2- (3-hydroxyphenyl)-N4- (4-[N-[methoxycarbonylmethylene]aminocarbonyl]phenyl)-2,4-pyrimidinediamine [Compound 1328]	< 10
NC1CCOc2ccc(Nc3nc(Nc4ccc(-c5cnco5)cc4)ncc3F)cc21 (racemic) [Compound 1293, (R,S)-N4-[4-Amino-3,4-dihydro-2H-1-benzopyran-6-yl]-5-fluoro-N2-[4-(oxazol-5-yl)phenyl]-2,4-pyrimidinediamine]	< 10
N[C@@H]1CCOc2ccc(Nc3nc(Nc4ccc(-c5ncco5)cc4)ncc3F)cc21 (racemic) [Compound 1294, (R,S)-N4-[4-Amino-3,4-dihydro-2H-1-benzopyran-6-yl]-5-fluoro-N2-[4-(oxazol-2-yl)phenyl]-2,4-pyrimidinediamine]	< 10
